Measured values: patent US11819489B2 (priority 2017, dated 2023)
Values joined by “and” are separate entries in the source; they are usually repeats but may differ in a detail not shown here. Equal entries are not always repeated. “Also recorded” adds a separate entry of the source.

Experiments:
[1] = tested on: K562 cells; experiment: Fate of PhAs(LHP) in K562 cells (micrographs, microprobe SR-XRF, XANES); format: cell-based, human; conditions: K562, 10 μM
Description: (§1) The cell lines, K562 and HL-60, were obtained and maintained as previously described. Glutaraldehyde (25% solution), Spurr's low viscosity embedding resin, 3-mm gold Finder grids, and toluidine blue were sourced from Proscitech (Kirwan, Australia). Thin-sectioned cells were prepared for microprobe SRXRF analysis using procedures documented previously. Briefly the cells were treated in cell culture flasks (75 cm^2) with either IMDM (for the control cells, 4 h or 24 h) or PhAs(LHP) (10 μM in IMDM, 4 h or 24 h). The cells were washed with PBS (2 times) using centriguation and the final cell pellet was fixed in gluteraldehyde (1 mL, 2% v/v in PBS) for 2 h at room temperature; and dehydrated in ethanol (30%×2, 50%×2, 70%×2, 80%×2, 90%×2, 95%×2, 100%×4). Infiltration was achieved by rocking the cells in 50% ethanol/50% Spurr's resin overnight and then replacing with 100% Spurr's resin (×2 over 2 days) to ensure the removal of all traces of water. On the final day, the cells were embedded in 100% Spurr's resin, centrifuged (8000 g, 1 h) and cured at 60° C. overnight in a Beem capsule. Thin sections (1 μm) of the cell pellet were cut using an ultramicrotome (Leica EM UC7). The thin-sections were stained with toluidine blue before mounting on silicon nitride membranes.
The gold Finder grids were attached to kinematic mounts designed to fit both the light microscope (Leica DMXRE Epi-fluorescence/visual microscope) and the X-ray microprobe (2-ID-D). […]
Microprobe SR-XRF was performed at beamline 2-ID-D at the Advanced Photon Source, Argonne National Laboratory (Lemont, Ill., USA). […] Fluorescent X-rays were detected using a dwell time of 2.5 s/pt and an energy dispersive Vortex EM (Hitachi High-Technologies Science America, Northridge, Calif.) silicon drift detector. […] Conversion of elemental fluorescence intensities to absolute densities in microgram per square centimetre (μg/cm^2) was performed by comparing X-ray fluorescence intensities with those from thin film standards, NBS-1832 and NBS-1833 (NIST, Gaithersburg, Md., USA).

[2] = tested on: human peripheral blood mononuclear cells (hPBMC)
[3] = tested on: HL-60 cells
[4] = tested on: A549 cells; conditions: 24-h treatment
[5] = tested on: HepG2 cells; format: cell-based, human
[6] = tested on: hPBMC; experiment: Cellular As uptake, hPBMC; format: cell-based, human; conditions: 24-h treatment, 1.5 μM As
Description: (§2) FIG. 24 is a graphical summary of the cellular As concentrations associated with the specified cell lines following 24-h treatment (1.5 μM As). The results are represented as the mean and standard deviation of triplicate samples.
(§3) FIG. 24 summarises the cellular As concentrations associated with the different cell types following 24-h treatment with the various As compounds (1.5 μM As). The leukemia cell lines, K562, HL-60, Kasumi-1 and KARPAS 45, are depicted in red (lighter of the filled in blocks), and the non-leukemia cell types are depicted in black (darkest shading), with the cancerous adherent cells, HepG2, in the diagonal stripes, and the normal cells, hPBMC, in solid black.

[7] = tested on: Chinese hamster (CH) solid tumour cells
[8] = tested on: HL-60 cells; experiment: Fate of PhAs(LHP) in HL-60 cells (micrographs, microprobe SR-XRF, XANES); format: cell-based, human; conditions: HL-60, 10 μM
Description: as §1
The gold Finder grids were attached to kinematic mounts designed to fit both the light microscope (Leica DMXRE Epi-fluorescence/visual microscope) and the X-ray microprobe (2-ID-D). Optical micrographs and XY coordinates were obtained in order to locate suitable cells for analysis.
Microprobe SR-XRF was performed at beamline 2-ID-D at the Advanced Photon Source, Argonne National Laboratory (Lemont, Ill., USA). The 11.9-keV X-ray beam was focused to a spot size of 0.3×0.3 μm^2 using two zone plates. The samples were housed in a helium atmosphere and the distributions of the elements from P (2.1 keV) to As (11.9 keV) were mapped by raster scanning the sample in 0.3 μm steps, with the aid of a XYZ motorised stage. Fluorescent X-rays were detected using a dwell time of 2.5 s/pt and an energy dispersive Vortex EM (Hitachi High-Technologies Science America, Northridge, Calif.) silicon drift detector. Elemental distribution maps were processed using MAPS Version 1.7.3.02 software package (S. Vogt, Advanced Photon Source). Conversion of elemental fluorescence intensities to absolute densities in microgram per square centimetre (μg/cm^2) was performed by comparing X-ray fluorescence intensities with those from thin film standards, NBS-1832 and NBS-1833 (NIST, Gaithersburg, Md., USA).

[9] = Stability of As-LHP complexes in cell medium (IMDM) by XAS; format: physicochemical; conditions: 37° C., 0 h vs 24 h
Description: The stability of the two most promising As-LHP complexes was also studied in cell medium (IMDM). Samples were prepared by dissolving MeAs(LHP) or PhAs(LHP) (1.5 mM) in IMDM which was maintained at 37° C. The same protocol was followed as that for the Milli-Q water stability studies. XAS spectra were obtained at the zero time point and then at 24 h. As with the Milli-Q water samples, the spectra from the two time points were processed, fitted and quantified using EXAFSPAK.

[10] = tested on: Kasumi-1 cells; experiment: Cellular As uptake, Kasumi-1 cells; format: cell-based, human; conditions: 1.5 μM As
Description: as §2, §3

[11] = tested on: Kasumi-1 cells
[12] = tested on: HepG2 cells
[13] = Stability of As-LHP complexes in Milli-Q water by XAS; format: physicochemical; conditions: 37° C., 0 h vs 14 h
Description: The stability of As-LHP complexes was studied by XAS. Samples were prepared by dissolving HyAs(LHP), MeAs(LHP) or PhAs(LHP) (1.5 mM) in Milli-Q water which was maintained at 37° C. Immediately prior to analysis the arsenic-peptide solution (600 μL) was mixed with ethylene glycol (300 μL) to prevent crystallisation during rapid freezing. The resultant solution (1 mM final As concentration) was transferred by syringe to the sample holder which was sealed with Kapton tape. The sample was then rapidly submerged in liquid nitrogen and transferred to the liquid helium cryostat where it was analysed at 10° K.
Arsenic K-edge XAS data were collected at the Australian National Beamline Facility (ANBF, beamline 20B) KEK, Tsukuba, Japan with a beam energy of 2.5 GeV, and beam current of 300-400 mA. A Si[111] channel-cut monochromator was detuned by 50% to reject harmonics. All spectra were recorded in fluorescence mode at ˜10° K (maintained with a closed-cycle He Cryolndustries REF-1577-D22 cryostat) using a 36-element Ge-array detector (Eurisys/Canberra Industries) and a 1-mm vertical slit width. XAS spectra were obtained at the zero time point and then at a later time point, 4 h or 14 h. The spectra from the two time points were processed and analysed using EXAFS PAK.

[14] = tested on: K562 cells
[15] = tested on: KARPAS 45 cells; experiment: Cellular As uptake, KARPAS 45 cells; format: cell-based, human; conditions: KARPAS 45, 24-h treatment, 1.5 μM As
Description: as §2, §3

[16] = tested on: KARPAS 45 cells
[17] = tested on: HL-60 cells; experiment: Cellular As uptake, HL-60 cells; format: cell-based, human; conditions: HL-60, 24-h treatment, 1.5 μM As
Description: as §2, §3

[18] = tested on: K562 cells; experiment: Cellular As uptake, K562 cells; format: cell-based, human; conditions: K562, 24-h treatment, 1.5 μM As
Description: as §2, §3

Molecule: CC(=O)N[C@H]1CS[As](c2ccccc2)SC[C@@H](C(=O)O)NC(=O)[C@H](CCCNC(=N)N)NC(=O)[C@H](CCCNC(=N)N)NC(=O)[C@H](CC(C)C)NC(=O)[C@H](CCCNC(=N)N)NC(=O)[C@H](Cc2c[nH]cn2)NC(=O)[C@H](Cc2ccc(O)cc2)NC(=O)[C@H](C)NC1=O (some centres unmarked) [PhAs(LHP)]
- cell morphology (toluidine-blue micrograph) ([1]; 4 h): clear evidence of cell stress with fragmentation of the nucleus
- intracellular As distribution (microprobe SR-XRF) ([1]; 4 h and 24 h): significant As throughout the cell with evidence of accumulation in the cell nucleus
- cell morphology (toluidine-blue micrograph) ([1]; 24 h): breakdown of the cell membrane and fragmented/dispersed nuclear material
- IC50 [2]: 495 ± 6 µM
- selectivity: IC50 in hPBMC, times greater than in K562 and HL-60 cells [2]: approximately 1000 times
- selectivity: IC50 in hPBMC, times greater than in KARPAS 45 cells [2]: approximately 64 times
- IC50 [3]: 0.5 ± 0.1 µM
- relative toxicity / IC50 versus another compound, in words (comparator in the value) [3]: three times greater toxicity toward HL-60 cells than the PAO starting material
- selectivity: IC50 in A549 cells, times greater than in K562 and HL-60 cells [4]: 470 times
- IC50 ([4]; A549 cells, MTT): 234 ± 5 µM
- cellular As concentration [5]: no detectable cellular As concentrations
- cellular As concentration [6]: no detectable cellular As concentrations
- IC50 [7]: 770 ± 12 µM
- selectivity: IC50 in CH solid tumour cells, times greater than in K562 and HL-60 cells [7]: approximately 1500 times
- cell morphology (toluidine-blue micrograph) ([8]; 4 h): cell distress is evident
- intracellular As distribution (microprobe SR-XRF) ([8]; 4 h): only small localisations of As
- cell morphology (toluidine-blue micrograph) ([8]; 24 h): high degree of cell degredation with evidence of cell demise
- intracellular As distribution (microprobe SR-XRF) ([8]; 24 h): the nucleus clearly contains a greater accumulation of As than the rest of the cell
- agreement between As K-edge XANES spectra at the two time points [9]: 97%
- stability in IMDM ([9]; XANES): reasonably stable in IMDM for 24 h; also recorded: good stability
- cellular As concentration in Kasumi-1 cells, times greater than in HL-60 cells ([10]; 24-h treatment): 1.4 times
- cellular As concentration in Kasumi-1 cells, times higher than in K562 cells ([10]; 24-h treatment): 1.2 times
- cellular As concentration in Kasumi-1 cells, times higher than in KARPAS 45 cells ([10]; 24-h treatment): 4.0 times
- IC50 [11]: 1.4 ± 0.1 µM
- relative toxicity / IC50 versus another compound, in words (comparator in the value) [11]: approximately forty times more toxic than ATO
- times more toxic than PAO [11]: 3.6 times
- times more toxic than PhAs(sLHP) [11]: about 460 times
- IC50 [12]: 978 ± 11 µM
- selectivity: IC50 in HepG2 cells, times greater than in K562 and HL-60 cells [12]: ~2000 times
- agreement between As K-edge XANES spectra at the two time points [13]: ~100%
- stability in Milli-Q water ([13]; XANES): stable in Milli-Q water for 14 h; also recorded: excellent stability

Molecule: CC(=O)N[C@H]1CS[As](c2ccccc2)SC[C@@H](C(=O)O)NC(=O)[C@H](CCCNC(=N)N)NC(=O)[C@H](CC(C)C)NC(=O)[C@H](Cc2ccc(O)cc2)NC(=O)[C@H](CCCNC(=N)N)NC(=O)[C@H](Cc2c[nH]cn2)NC(=O)[C@H](CCCNC(=N)N)NC(=O)[C@H](C)NC1=O (some centres unmarked) [PhAs(sLHP)]
- IC50 [2]: 665 ± 8 µM
- IC50 [3]: 205 ± 4 µM
- IC50 [14]: 790 ± 30 µM
- times less toxic than PhAs(LHP) [14]: 1600 times
- cellular As concentration [5]: no detectable As uptake
- cellular As concentration [6]: no detectable As uptake
- cellular As concentration [15]: no detectable As uptake
- cellular As concentration ([10]; Kasumi-1, 24-h treatment): no detectable As uptake
- times less toxic than PhAs(LHP) [16]: 32 times
- IC50 [12]: 960 ± 10 µM
- cellular As concentration [17]: no detectable As uptake
- cellular As concentration [18]: no detectable As uptake

Molecule: arsenic trioxide [ATO]
- IC50 [2]: 81.7 µM and 82 µM
- relative toxicity / IC50 versus another compound, in words (comparator in the value) [2]: approximately twice that obtained for arsenite
- IC50 [3]: 7 ± 0.1 µM
- relative toxicity / IC50 versus another compound, in words (comparator in the value) [3]: a little less than half that obtained for arsenite
- IC50 [14]: 9.7 ± 0.2 µM
- relative toxicity / IC50 versus another compound, in words (comparator in the value) [14]: approximately half that of arsenite
- IC50 [7]: 23.3 ± 0.9 µM
- cellular As concentration in Kasumi-1 cells, times greater than in HepG2 cells ([10]; 24-h treatment): 5.5 times
- IC50 [16]: 15.1 µM and 15 µM
- IC50 as percentage of the value for arsenite [16]: 23%
- IC50 [11]: 61 ± 1 µM
- IC50 [12]: 52 ± 3 µM
- times more toxic than arsenite [12]: 1.7 times
